The source of these data is US20070003531A1, “Methods for improving immunotherapy by enhancing survival of antigen-specific cytotoxic T lymphocytes” (University of Connecticut, priority 2005, published 2007).

Assay [1] relates to Mart-1 primary CTLs. Nature of the assay: Mitochondrial transmembrane potential (DiOC6 staining). It counts as cell-based, human. The following applies: induced by re-stimulation with cognate peptide; data not shown. The method, then:
FIG. 12. Effect of antigen specific secondary stimulation on mitochondrial transmembrane membrane potential (Δψm), pro- and anti-apoptotic protein and expression of cell surface molecules. (A) Differential effect on membrane polarization in Mart-1 primary CTLs (top panel) vs. Jurkat T cells (bottom panel). CTLs were incubated with T2 cells either alone or loaded with peptide. After overnight secondary exposure cells were stained with Mart-1 tetramer/CD8 and DiOC6. Histogram represents the fluorescence of DiOC6 in the gated antigen specific tetramer^+ population (top panel). Jurkat T cells were also analyzed for modulation of membrane potential after TCR-driven stimulation (bottom panel). Values represent the mean±SD of fluorescence intensity triplicates from one out of three separate experiment. *p<0.001 (One Way ANOVA). […] (C) Expression of different cell surface receptors for survival or death signal in antigen specific population upon secondary stimulation. Values on left upper corner represent the geometric mean of the fluorescence intensity for that particular marker when stimulated with T2/MAGE-3271-279 while that on right upper corner represent the geometric mean of the fluorescence intensity when stimulated with T2/MART-127-35.

In assay [2] the test system is MART-127-35 tetramer+/CD8+ CTLs. Nature of the assay: Survival of antigen specific CTLs five days after secondary encounter of the epitope. The assay is classed as cell-based, human. The following applies: day five in IL-15 after overnight co-culture with cognate epitope; inhibitor 25 μM then washed off. The method, then: FIG. 13. Survival of the antigen specific CTLs following secondary encounter of the epitope in the presence of anthra[1,9-cd]pyrazol-6(2H)-one (SP600125) and recovery of function in the pyrazoloanthrone rescued CTLs. Effector cells were co-cultured with peptide pulsed T2 cells in the presence or absence of the kinase inhibitors (25 μM). The cultures were washed about 18 h later and then recultured in IL-15 containing medium. On day five, the numbers of the viable antigen specific CTLs were determined. […] The number (11%) of MART-127-35 tetramer^+/CD8^+ population exposed to MART-127-35 peptide pulsed T2 cells (T2/M1) is a reflection of loss of epitope specific CTLs from AICD. […] (B) IFN-γ response by the recovered populations (M3=MAGE-3271-279, M1=MART-127-35).
Finally, the functional status of SP600125 rescued CTLs upon continuous culture was examined. After overnight exposure of the CTLs to the cognate epitope in the presence or absence of SP600125, the CTLs were washed and then maintained in continuous culture in IL-15 containing CM without the inhibitor. Five days after, the number of viable MART-127-35 tetramer positive cells were determined and their function was tested in the IFN-γ response assay. […] Remarkably, the rescued CTLs regained their capacity to synthesize IFN-γ (FIG. 13B).

Assay [3] concerns AIF release in Jurkat cells. Nature of the assay: AIF release in CD3 induced AICD in Jurkat cells. It counts as cell-based, human. The source says:
FIG. 14. Nuclear translocation of AIF and effect of SP600125 on the AIF release and such translocation. The MART-1 epitope specific CTLs generated in the in vitro CTL generation protocol were restimulated by the cognate epitope or a control epitope in the presence or absence of the JNK inhibitor SP600125. (A) Western blot of heavy membrane faction (HM) and cytosolic fraction (S-100) of control CTL (C) and CTLs restimulated by the cognate peptide (M1). As shown, AIF is released in the cytosol of CTLs encountering the cognate peptide without any release of cytochrome c. (B) Effect of SP600125 on AIF release in CD3 induced AICD in Jurkat cells. As shown, AIF is released without cytochrome c release in these cells and SP600125 interferes with the AIF release. (C) Densitometric analysis of the SP600125 effect on AIF release.

Assay [4] concerns MART-127-35 epitope specific human primary CTL. Nature of the assay: AICD induction and quantitation in epitope specific primary CTL (tetramer/annexin V FACS). The assay is classed as cell-based. The following applies: pre-incubation about 45 min; restimulation with MART-127-35 peptide pulsed T2 cells; kinase inhibitors 25 μM, z-VAD-fmk 100 μM, Fc chimeras 10 μg/ml. The method, then:
FIG. 10. Effect of external death receptor blockade and MAP kinase inhibitors on AICD in the epitope specific CTLs upon secondary encounter of the cognate epitope. The CTLs were pre-incubated at optimal concentration for about 45 min. at about 37° C. with pan caspase inhibitor z-VAD-fmk (100 μM); human Fas/Fc chimera, human TNF-RI/Fc chimera, human TRAIL-RI/Fc chimera, human TRAIL-RII/Fc chimera and human IFN-γ RI/Fc chimeric proteins (10 μg/ml); p38 kinase inhibitor SB203580, JNK inhibitor anthra[1,9-cd]pyrazol-6(2H)-one (SP600125), […] inhibitor PD98059 (25 μM). Then the pretreated as well as untreated CTLs were incubated with T2 cells either alone or loaded with peptide. About 4 hours after secondary exposure cells were stained for determining: (A) Number of tetramer^+ cells out of the CD8^+ T cells [Top panel]; number of tetramer^+/Annexin V^+ and tetramer^+/Annexin^− populations [Bottom panel]. […] (B) Effect of the MAP kinase inhibitors on IFN-γ response by the effector cells.
AICD induction and quantitation. AICD in the human primary CTL primed and expanded specifically for melanoma epitope MART-127-35 was induced by re-exposure of the CTLs to MART-127-35 peptide (1 μg/ml) as reported previously. Staurosporine mediated death was induced by exposure of CTL to 1 μM staurosporine for 4 hr. Quantitation of AICD and the effects of various inhibitors on AICD of CTLs, were carried out by annexin-V staining followed by FACS analyses as reported previously.
In test whether or not the epitope specific primary CTLs undergo AICD, the activated CTLs were exposed to peptide [1 μg/ml] loaded T2 cells (Effector: Target=100) at different time points of the cultures. Thereafter, the evidence of apoptosis was determined by flow cytometry with triple color staining (CD8, MART-127-35/HLA-A2 tetramer and annexin V) at different time points (4-18 h). Experiments were carried out in triplicate wells and significance was calculated by One-way analysis of variance (ANOVA) using Sigma Stat statistical software, Chicago, Ill.
To evaluate the effect of various agents in modulating AICD, the CTLs were pre-incubated with various compounds at optimal concentration for 45 min. at 37° C. and then exposed to T2 cells alone or loaded with peptide.

The target in assay [5] is c-jun N-terminal kinase. The following applies: cited from earlier work.
Assay [6] has as its system helper T cells. Nature of the assay: AICD in helper T cells. The assay is classed as cell-based. The source says:
Thus, JNK inhibitors, when administered alone or in combination with other therapeutics, have utility for the treatment of diseases, including AIDS, for which the death of helper T cells is a factor in the etiology, mechanism or progression of that disease.

Entries after “also recorded” stand apart in the source; their conditions may differ.

For `O=C1c2ccccc2-c2n[nH]c3cccc1c23` [SP600125, anthra[1,9-cd]pyrazol-6(2H)-one], the “level of hyper polarization of mitochondrial transmembrane potential” value in assay [1] is listed as “decreased”. In assay [2], the “fraction of starting epitope specific population recovered” value was “larger fraction”. In addition, in assay [3], the “AIF release in Jurkat cells” value is “interferes”. In assay [4], the “protection/rescue of CTL from AICD” value is reported as “protected; also recorded: rescued a significant fraction; also recorded: capable of protecting; also recorded: blocked”. Besides, the inhibitory constant (Ki) (in general, the dissociation constant of the complex between target and ligand, obtained from inhibition or displacement) in assay [5] was roughly 190 nM. Also, the “AICD in helper T cells” value in assay [6] was “inhibit/prevent”.
